Measured values reported in patent US20240254115A1 (ACONDICIONAMIENTO TARRASENSE, priority 2021, published 2024).

Assays:
[1] = biological target: T1, human σ2/TMEM97 receptor (Homo sapiens, UniProt Q5BJF2); experiment: Binding assay to human σ2/TMEM97 receptor; settings: transfected HEK-293 membranes, 10 nM [3H]-DTG, 25° C. 120 minutes; + may also stand for 1-50% inhibition at 1 or 10 μM; read-out: Binding σ-2 Ki
T1 construct: expressed in transfected cells; host or cells: HEK-293
Procedure, shortened: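 Membranes from transfected HEK-293 cells (15 µg) were incubated with 10 nM [3H]-DTG in 50 mM Tris-HCl pH 8.0 for 120 min at 25 °C, with 10 µM haloperidol defining non-specific binding. Filtration and scintillation counting followed. Compounds tested as % inhibition at 1 or 10 µM, or at five concentrations for Ki.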

[2] = biological target: T2, human σ1 receptor (Homo sapiens, UniProt Q99720); experiment: Human σ1 receptor radioligand assay; settings: transfected HEK-293 membranes, 5 nM [3H](+)-pentazocine, 37° C. 120 minutes; + may also stand for 1-50% inhibition at 1 or 10 μM; read-out: Binding σ-1 Ki
T2 construct: expressed in transfected cells; host or cells: HEK-293
Procedure, shortened: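 Membranes (7 μg) were incubated with 5 nM [3H](+)-pentazocine in 50 mM Tris-HCl pH 8 for 120 min at 37° C. Non-specific binding was defined with 10 μM haloperidol. Values are % inhibition at 1 or 10 μM or Ki from five concentrations, read by filtration and scintillation counting.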

T2 sequence (Q99720 whole entry): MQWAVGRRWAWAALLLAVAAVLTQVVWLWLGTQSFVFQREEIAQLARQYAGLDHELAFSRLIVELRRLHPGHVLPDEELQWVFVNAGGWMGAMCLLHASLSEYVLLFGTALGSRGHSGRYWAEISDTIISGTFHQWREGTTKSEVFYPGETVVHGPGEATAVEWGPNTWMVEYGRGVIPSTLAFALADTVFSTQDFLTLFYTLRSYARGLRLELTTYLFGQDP
T1 sequence (Q5BJF2 whole entry): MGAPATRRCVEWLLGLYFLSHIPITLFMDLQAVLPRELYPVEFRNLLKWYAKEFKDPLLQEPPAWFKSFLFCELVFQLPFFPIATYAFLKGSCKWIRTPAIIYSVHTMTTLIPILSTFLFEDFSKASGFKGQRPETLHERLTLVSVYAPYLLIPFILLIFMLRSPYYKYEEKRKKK

| SMILES | Ki [1] [µM] | Ki [2] [µM] |
| --- | --- | --- |
| N#Cc1cc(CN2CCCC3(CCN(S(=O)(=O)c4ccc(N5CCOC5=O)nc4)CC3)C2)ccc1F [Example 152, 2-Fluoro-5-((9-((6-(2-oxooxazolidin-3-yl)pyridin-3-yl)sulfonyl)-2,9-diazaspiro[5.5]undecan-2-yl)methyl)benzonitrile] | > 1 | > 1 |
| O=C1OCCN1c1ccc(S(=O)(=O)N2CCC3(CCN(CC4CCOCC4)CC3)C2)cn1 [Example 153, 3-(5-((8-((Tetrahydro-2H-pyran-4-yl)methyl)-2,8-diazaspiro[4.5]decan-2-yl)sulfonyl)pyridin-2-yl)oxazolidin-2-one] | < 0.1 | < 0.1 |
| CC(C)(C)CCN1CCCC2(CCN(S(=O)(=O)c3ccc(N4CCOC4=O)cn3)CC2)C1 [Example 154, 3-(6-((2-(3,3-Dimethylbutyl)-2,9-diazaspiro[5.5]undecan-9-yl)sulfonyl)pyridin-3-yl)oxazolidin-2-one] | < 0.1 | < 0.1 |
| O=C1OCCN1c1ccc(S(=O)(=O)N2CCCC3(CCN(Cc4ccccc4)CC3)C2)cn1 [Example 155, 3-(5-((9-Benzyl-2,9-diazaspiro[5.5]undecan-2-yl)sulfonyl)pyridin-2-yl)oxazolidin-2-one] | < 0.1 | < 0.1 |
| O=C1OCCN1c1ccc(S(=O)(=O)N2CCC3(CCN(Cc4cc(F)ccc4F)CC3)CC2)cn1 [Example 156, 3-(5-((9-(2,5-Difluorobenzyl)-3,9-diazaspiro[5.5]undecan-yl)sulfonyl)pyridin-2-yl)oxazolidin-3-2-one] | < 0.1 | > 1 |
| N#Cc1cc(CN2CCC3(CC2)CCN(S(=O)(=O)c2ccc(N4CCOC4=O)nc2)CC3)ccc1F [Example 157, 2-Fluoro-5-((9-((6-(2-oxooxazolidin-3-yl)pyridin-3-yl)sulfonyl)-3,9-diazaspiro[5.5]undecan-3-yl)methyl)benzonitrile] | < 0.1 | > 1 |
| O=C1OCCN1c1ccc(S(=O)(=O)N2CCCC3(CCN(CC4CCOCC4)CC3)C2)cn1 [Example 158, 3-(5-((9-((Tetrahydro-2H-pyran-4-yl)methyl)-2,9-diazaspiro[5.5]undecan-2-yl)sulfonyl)pyridin-2-yl)oxazolidin-2-one] | < 0.1 | < 0.1 |
| O=C1OCCN1c1ccc(S(=O)(=O)N2CCCC3(CCN(Cc4ccccc4F)CC3)C2)cn1 [Example 159, 3-(5-((9-(2-Fluorobenzyl)-2,9-diazaspiro[5.5]undecan-2-yl)sulfonyl)pyridin-2-yl)oxazolidin-2-one] | < 0.1 | < 0.1 |
| O=C1OCCN1c1ccc(S(=O)(=O)N2CCCC3(CCN(Cc4cc(F)ccc4F)CC3)C2)cn1 [Example 160, 3-(5-((9-(2,5-Difluorobenzyl)-2,9-diazaspiro[5.5]undecan-2-yl)sulfonyl)pyridin-2-yl)oxazolidin-2-one] | < 0.1 | < 0.1 |
| N#Cc1cc(CN2CCC3(CCCN(S(=O)(=O)c4ccc(N5CCOC5=O)nc4)C3)CC2)ccc1F [Example 161, 2-Fluoro-5-((2-((6-(2-oxooxazolidin-3-yl)pyridin-3-yl)sulfonyl)-2,9-diazaspiro[5.5]undecan-9-yl)methyl)benzonitrile] | < 0.1 | < 0.1 |
| O=C1OCCN1c1ccc(S(=O)(=O)N2CCC3(CCN(Cc4cc(F)ccc4F)CC3)C2)cn1 [Example 162, 3-(5-((8-(2,5-Difluorobenzyl)-2,8-diazaspiro[4.5]decan-2-yl)sulfonyl)pyridin-2-yl)oxazolidin-2-one] | < 0.1 | > 1 |
| O=C1OCCN1c1ccc(S(=O)(=O)N2CCC3(CCN(Cc4ccccc4F)CC3)C2)cn1 [Example 163, 3-(5-((8-(2-Fluorobenzyl)-2,8-diazaspiro[4.5]decan-2-yl)sulfonyl)pyridin-2-yl)oxazolidin-2-one] | 0.1 to 0.5 | 0.1 to 0.5 |
| N#Cc1ccc(CN2CCC3(CC2)CCN(S(=O)(=O)c2ccc(N4CCOC4=O)nc2)C3)cc1F [Example 164, 2-Fluoro-4-((2-((6-(2-oxooxazolidin-3-yl)pyridin-3-yl)sulfonyl)-2,8-diazaspiro[4.5]decan-8-yl)methyl)benzonitrile] | 0.1 to 0.5 | 0.1 to 0.5 |
